{
  "source": "paper PMC3353973",
  "about": "(PLoS ONE, 2012)",
  "details": "hamster, in vivo",
  "note": "Numbered stars: 1 amine (or outer) side, 2 acyl side, 3 side chain; on linkers, the order of the positions; unused ones are H or OH. Bridge positions count the residues as written; N and C are the ends. I, II: the chains in the order shown. X1 = CC(C)CCC[C@@H](C)[C@H]1CC[C@H]2[C@@H]3CC=C4C[C@@H](OCCN(CCNC(=O)CCOCCOCCOCCOCCNC(=O)CCCN5C(=O)CC([*:1])C5=O)CCNC(=O)CCOCCOCCOCCOCCNC(=O)CCCN5C(=O)CC([*:2])C5=O)CC[C@]4(C)[C@H]3CC[C@]12C",
  "data": [
    {"substance": "I: Ac-VALDPIDISIVLNKAKSDLEESKEWIRRSNGKLDSIGSGSGC-NH2 / II: Ac-VALDPIDISIVLNKAKSDLEESKEWIRRSNGKLDSIGSGSGC-NH2 (linker I:42-II:42 via X1) [HPIV-P4]", "values": [
      {"measurement": "Apparent toxicity in mock-infected animals", "value": "did not result in any apparent toxicity"}
    ]}
  ]
}
